We go through 21 compounds from patent publication US9296757B2, “Substituted benzothienopyrimidines” (BAYER PHARMA AKTIENGESELLSCHAFT, priority 2012, dated 2016).

human full-length MKNK1, sequence (Q9BUB5 other isoform, or with tags, fused parts or gaps T344D): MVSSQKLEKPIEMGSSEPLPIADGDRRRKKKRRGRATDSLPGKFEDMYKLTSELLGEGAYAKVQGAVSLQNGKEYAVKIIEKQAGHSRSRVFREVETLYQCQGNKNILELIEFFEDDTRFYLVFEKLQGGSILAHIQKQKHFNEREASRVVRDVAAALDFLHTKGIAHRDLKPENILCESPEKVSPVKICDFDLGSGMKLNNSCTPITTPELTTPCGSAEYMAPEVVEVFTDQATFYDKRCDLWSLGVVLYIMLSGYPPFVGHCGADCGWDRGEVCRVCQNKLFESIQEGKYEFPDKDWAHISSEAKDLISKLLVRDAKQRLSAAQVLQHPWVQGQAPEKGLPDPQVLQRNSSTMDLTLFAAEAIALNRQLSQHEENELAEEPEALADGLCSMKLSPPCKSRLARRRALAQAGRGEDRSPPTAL

This experiment addresses human full-length MKNK1 (Homo sapiens (Human), UniProt Q9BUB5, T344D). The experiment is described as follows: MKNK1 kinase high ATP assay (TR-FRET). Format: biochemical. The following applies: high ATP (2 mM final), 15 min preincubation with enzyme. The method, then:
MKNK1-inhibitory activity at high ATP of compounds of the present invention after their preincubation with MKNK1 was quantified employing the TR-FRET-based MKNK1 high ATP assay as described in the following paragraphs.
A recombinant fusion protein of Glutathione-S-Transferase (GST, N-terminally) and human full-length MKNK1 (amino acids 1-424 and T344D of accession number BAA 19885.1), expressed in insect cells using baculovirus expression system and purified via glutathione sepharose affinity chromatography, was purchased from Carna Biosciences (product no 02-145) and used as enzyme. As substrate for the kinase reaction the biotinylated peptide biotin-Ahx-IKKRKLTRRKSLKG (C-terminus in amide form) was used, which can be purchased e.g. from the company Biosyntan (Berlin-Buch, Germany).
For the assay 50 nL of a 100 fold concentrated solution of the test compound in DMSO was pipetted into a black low volume 384 well microtiter plate (Greiner Bio-One, Frickenhausen, Germany), 2 μL of a solution of MKNK1 in aqueous assay buffer [50 mM HEPES pH 7.5, 5 mM MgCl2, 1.0 mM dithiothreitol, 0.005% (v/v) Nonidet-P40 (Sigma)] was added and the mixture was incubated for 15 min at 22° C. to allow pre-binding of the test compounds to the enzyme before the start of the kinase reaction. Then the kinase reaction was started by the addition of 3 μL of a solution of adenosine-tri-phosphate (ATP, 3.3 mM=>final conc. in the 5 μL assay volume is 2 mM) and substrate (0.1 μM=>final conc. in the 5 μL assay volume is 0.06 μM) in assay buffer and the resulting mixture was incubated for a reaction time of 30 min at 22° C. The concentration of MKNK1 was adjusted depending of the activity of the enzyme lot and was chosen appropriate to have the assay in the linear range, typical concentrations were in the range of 0.003 μg/mL. The reaction was stopped by the addition of 5 μL of a solution of TR-FRET detection reagents (5 nM streptavidine-XL665 [Cisbio Bioassays, Codolet, France] and 1 nM anti-ribosomal protein S6 (pSer236)-antibody from Invitrogen [#44921G] and 1 nM LANCE EU-W1024 labeled ProteinG [Perkin-Elmer, product no. AD0071]) in an aqueous EDTA-solution (100 mM EDTA, 0.1% (w/v) bovine serum albumin in 50 mM HEPES pH 7.5).
The resulting mixture was incubated for 1 h at 22° C. to allow the formation of complex between the phosphorylated biotinylated peptide and the detection reagents. Subsequently the amount of phosphorylated substrate was evaluated by measurement of the resonance energy transfer from the Eu-chelate to the streptavidine-XL. Therefore, the fluorescence emissions at 620 nm and 665 nm after excitation at 350 nm were measured in a TR-FRET reader, e.g. a Rubystar (BMG Labtechnologies, Offenburg, Germany) or a Viewlux (Perkin-Elmer). The ratio of the emissions at 665 nm and at […] was taken as the measure for the amount of phosphorylated substrate. The data were normalised (enzyme reaction without inhibitor=0% inhibition, all other assay components but no enzyme=100% inhibition).
The compound `COCCN1CCN(C(=O)C2CCc3c(sc4ncnc(Nc5ccc6[nH]c(=O)sc6c5)c34)C2)CC1` (racemic) [Example 72, (RS)-6-[(7-{[4-(2-methoxyethyl)piperazin-1-yl]carbonyl}-5,6,7,8-tetrahydro[1]benzothieno[2,3-d]pyrimidin-4-yl)amino]-1,3-benzothiazol-2(3H)-one] returned an IC50 of 0.044 µM.
The compound `CCCCN(CC#N)C(=O)C1CCc2c(sc3ncnc(Nc4ccc5[nH]c(=O)sc5c4)c23)C1` (racemic) [Example 34, (RS)-N-butyl-N-(cyanonmethyl)-4-[(2-oxo-2,3-dihydro-1,3-benzothiazol-6-yl)amino]-5,6,7,8-tetrahydro[1]benzothieno[2,3-d]pyrimidine-7-carboxamide] gave a half-maximal inhibitory concentration (IC50) of 0.02 µM.
`CN1CCN(C(=O)C2CCc3c(sc4ncnc(Nc5ccc6[nH]c(=O)sc6c5)c34)C2)CC1` (racemic) [Example 29, (RS)-6-({7-[(4-Methylpiperazin-1-yl)carbonyl]-5,6,7,8-tetrahydro[1]benzothieno[2,3-d]pyrimidin-4-yl}amino)-1,3-benzothiazol-2(3H)-one]: it took 0.048 µM to reach half-maximal inhibition (IC50).
To `CC(C)N(CCO)C(=O)C1CCc2c(sc3ncnc(Nc4ccc5[nH]c(=O)sc5c4)c23)C1` (racemic) [Example 54, (RS)-N-(2-hydroxyethyl)-N-isopropyl-4-[(2-oxo-2,3-dihydro-1,3-benzothiazol-6-yl)amino]-5,6,7,8-tetrahydro[1]benzothieno[2,3-d]pyrimidine-7-carboxamide] belongs 0.028 µM.
Turning to `CCCN(CCOC)C(=O)C1CCc2c(sc3ncnc(Nc4cc5sc(=O)[nH]c5cc4OC)c23)C1` (racemic) [Example 87, (RS)—N-(2-Methoxyethyl)-4-[(5-methoxy-2-oxo-2,3-dihydro-1,3-benzothiazol-6-yl)amino]-N-propyl-5,6,7,8-tetrahydro[1]benzothieno[2,3-d]pyrimidine-7-carboxamide], the IC50 was determined as 0.002 µM.
On to `CN(CCCO)C(=O)C1CCc2c(sc3ncnc(Nc4ccc5[nH]c(=O)sc5c4)c23)C1` (racemic) [Example 67, (RS)-N-(3-hydroxypropyl)-N-methyl-4-[(2-oxo-2,3-dihydro-1,3-benzothiazol-6-yl)amino]-5,6,7,8-tetrahydro[1]benzothieno[2,3-d]pyrimidine-7-carboxamide], for which the midpoint of inhibition, the IC50, lay at 0.062 µM.
For `CC(C)NC(=O)C1CCc2c(sc3ncnc(Nc4ccc5[nH]c(=O)sc5c4)c23)C1` (racemic) [Example 5, (RS)—N-Isopropyl-4-[(2-oxo-2,3-dihydro-1,3-benzothiazol-6-yl)amino]-5,6,7,8-tetrahydro[1]benzothieno[2,3-d]pyrimidine-7-carboxamide] the value was 0.036 µM; for `O=C(C1CCc2c(sc3ncnc(Nc4ccc5[nH]c(=O)sc5c4)c23)C1)N1CCN(Cc2ccccc2)CC1` (stereo not drawn) [Example 38, 6-({7-[(4-benzylpiperazin-1-yl)carbonyl]-5,6,7,8-tetrahydro[1]benzothieno[2,3-d]pyrimidin-4-yl}amino)-1,3-benzothiazol-2(3H)-one], 0.044 µM.
For `N#CC1CCCN(C(=O)C2CCc3c(sc4ncnc(Nc5ccc6[nH]c(=O)sc6c5)c34)C2)C1` (racemic) [Example 75, (3RS)-1-({(7RS)-4-[(2-oxo-2,3-dihydro-1,3-benzothiazol-6-yl)amino]-5,6,7,8-tetrahydro[1]benzothieno[2,3-d]pyrimidin-7-yl}carbonyl)piperidine-3-carbonitrile] the value was 0.032 µM; for `O=C(NCC1CC1)C1CCc2c(sc3ncnc(Nc4ccc5[nH]c(=O)sc5c4)c23)C1` (racemic) [Example 12, (RS)—N-(Cyclopropylmethyl)-4-[(2-oxo-2,3-dihydro-1,3-benzothiazol-6-yl)amino]-5,6,7,8-tetrahydro[1]benzothieno[2,3-d]pyrimidine-7-carboxamide], 0.048 µM; for `CN(CCN1CCOCC1)C(=O)C1CCc2c(sc3ncnc(Nc4ccc5[nH]c(=O)sc5c4)c23)C1` (racemic) [Example 82, (RS)-N-methyl-N-[2-(morpholin-4-yl)ethyl]-4-[(2-oxo-2,3-dihydro-1,3-benzothiazol-6-yl)amino]-5,6,7,8-tetrahydro[1]benzothieno[2,3-d]pyrimidine-7-carboxamide], 0.046 µM.
On to `CN(CCCCO)C(=O)C1CCc2c(sc3ncnc(Nc4ccc5[nH]c(=O)sc5c4)c23)C1` (racemic) [Example 66, (RS)-N-(4-hydroxybutyl)-N-methyl-4-[(2-oxo-2,3-dihydro-1,3-benzothiazol-6-yl)amino]-5,6,7,8-tetrahydro[1]benzothieno[2,3-d]pyrimidine-7-carboxamide], for which the 50% inhibitory concentration (IC50) was found to be 0.034 µM.
For `CC(C)OC(=O)NCC1CCc2c(sc3ncnc(Nc4ccc5[nH]c(=O)sc5c4)c23)C1` (racemic) [Example 24, (RS)-Propan-2-yl ({4-[(2-oxo-2,3-dihydro-1,3-benzothiazol-6-yl)amino]-5,6,7,8-tetrahydro[1]benzothieno[2,3-d]pyrimidin-7-yl}methyl)carbamate] the value was 0.062 µM; for `CN1CCN(C(=O)C2CCc3c(sc4ncnc(Nc5ccc6[nH]c(=O)sc6c5)c34)C2)CC1` (racemic) [Example 37, (RS)-6-({7-[(4-methylpiperazin-1-yl)carbonyl]-5,6,7,8-tetrahydro[1]benzothieno[2,3-d]pyrimidin-4-yl}amino)-1,3-benzothiazol-2(3H)-one], 0.022 µM; for `O=C(C1CCc2c(sc3ncnc(Nc4ccc5[nH]c(=O)sc5c4)c23)C1)N1CCCC(O)C1` (racemic) [Example 53, 6-{[(7RS)-7-{[(3RS)-3-hydroxypiperidin-1-yl]carbonyl}-5,6,7,8-tetrahydro[1]benzothieno[2,3-d]pyrimidin-4-yl]amino}-1,3-benzothiazol-2(3H)-one], 0.052 µM.
In the case of `CN1CC2CC1CN2C(=O)C1CCc2c(sc3ncnc(Nc4ccc5[nH]c(=O)sc5c4)c23)C1` (racemic) [Example 74, 6-{[(7RS)-7-{[(1RS,4RS)-5-methyl-2,5-diazabicyclo[2.2.1]hept-2-yl]carbonyl}-5,6,7,8-tetrahydro[1]benzothieno[2,3-d]pyrimidin-4-yl]amino}-1,3-benzothiazol-2(3H)-one], the midpoint of inhibition, the IC50, lay at 0.047 µM.
For `CC(C)C(=O)NCC1CCc2c(sc3ncnc(Nc4ccc5[nH]c(=O)sc5c4)c23)C1` (racemic) [Example 21, (RS)-2-Methyl-N-({4-[(2-oxo-2,3-dihydro-1,3-benzothiazol-6-yl)amino]-5,6,7,8-tetrahydro[1]benzothieno[2,3-d]pyrimidin-7-yl}methyl)propanamide] the value was 0.037 µM.
For `O=C(C1CCc2c(sc3ncnc(Nc4ccc5[nH]c(=O)sc5c4)c23)C1)N1CCN(Cc2ccc3c(c2)OCO3)CC1` (racemic) [Example 44, (RS)-6-[(7-{[4-(1,3-benzodioxol-5-ylmethyl)piperazin-1-yl]carbonyl}-5,6,7,8-tetrahydro[1]benzothieno[2,3-d]pyrimidin-4-yl)amino]-1,3-benzothiazol-2(3H)-one], inhibition was half-maximal at 0.067 µM (IC50).
As to `COC1CCCN(C(=O)C2CCc3c(sc4ncnc(Nc5ccc6[nH]c(=O)sc6c5)c34)C2)C1` (racemic) [Example 84, 6-{[(7RS)-7-{[(3RS)-3-methoxypiperidin-1-yl]carbonyl}-5,6,7,8-tetrahydro[1]benzothieno[2,3-d]pyrimidin-4-yl]amino}-1,3-benzothiazol-2(3H)-one], the half-inhibitory concentration (IC50) was 0.03 µM.
Take `CC(=O)N1CCN(C(=O)C2CCc3c(sc4ncnc(Nc5ccc6[nH]c(=O)sc6c5)c34)C2)CC1` (racemic) [Example 47, (RS)-6-({7-[(4-acetylpiperazin-1-yl)carbonyl]-5,6,7,8-tetrahydro[1]benzothieno[2,3-d]pyrimidin-4-yl}amino)-1,3-benzothiazol-2(3H)-one]: the half-inhibitory concentration (IC50) is 0.047 µM.
Take `O=C(NCC(F)(F)F)C1CCc2c(sc3ncnc(Nc4ccc5[nH]c(=O)sc5c4)c23)C1` (racemic) [Example 15, (RS)-4-[(2-oxo-2,3-dihydro-1,3-benzothiazol-6-yl)amino]-N-(2,2,2-trifluoroethyl)-5,6,7,8-tetrahydro[1]benzothieno[2,3-d]pyrimidine-7-carboxamide]: inhibition was half-maximal at 0.085 µM (IC50).

As a reminder, the IC50 is the point on the concentration scale where inhibition reaches its midpoint. High values mean weaker potency in that assay, low ones greater potency in that assay.
